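Growth conditions: 96-well plates. Treatment: test compound, 48 hours, 5 concentrations. Analysis: linear interpolation between bracketing concentrations; unreached endpoints set to highest concentration. At the TGI there is no net growth.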
How the values were obtained:
Experiment in all cases: inhibition of tumour cell growth, NCI panel, 48 h
786-0 renal = tested on: 786-0 renal
A498 renal = tested on: A498 renal
A549 NSCLC = tested on: A549 NSCLC
ACHN renal = tested on: ACHN renal
BT-549 breast = tested on: BT-549 breast
CAKI-1 renal = tested on: CAKI-1 renal
COLO 205 colon = tested on: COLO 205 colon
DLD-1 colon = tested on: DLD-1 colon
DMS 114 small cell lung = tested on: DMS 114 small cell lung
DU-145 prostate = tested on: DU-145 prostate
EKVX NSCLC = tested on: EKVX NSCLC
HCC-2998 colon = tested on: HCC-2998 colon
HCT-116 colon = tested on: HCT-116 colon
HCT-15 colon = tested on: HCT-15 colon
HL-60(TB) leukemia = tested on: HL-60(TB) leukemia
HOP-62 NSCLC = tested on: HOP-62 NSCLC
HOP-92 NSCLC = tested on: HOP-92 NSCLC
HS 578T breast = tested on: HS 578T breast
HT29 colon = tested on: HT29 colon
IGROV1 ovarian = tested on: IGROV1 ovarian
K-562 leukemia = tested on: K-562 leukemia
KM12 colon = tested on: KM12 colon
KM20L2 colon = tested on: KM20L2 colon
LOX IMVI melanoma = tested on: LOX IMVI melanoma
LXFL 529 NSCLC = tested on: LXFL 529 NSCLC
M14 melanoma = tested on: M14 melanoma
M19-MEL melanoma = tested on: M19-MEL melanoma
MALME-3M melanoma = tested on: MALME-3M melanoma
MCF7 breast = tested on: MCF7 breast
MDA-MB-231 breast = tested on: MDA-MB-231 breast
MDA-MB-435 = tested on: MDA-MB-435
MDA-N = tested on: MDA-N
MOLT-4 leukemia = tested on: MOLT-4 leukemia
NCI-H226 lung = tested on: NCI-H226 lung
NCI-H23 lung = tested on: NCI-H23 lung
NCI-H460 lung = tested on: NCI-H460 lung
NCI-H522 lung = tested on: NCI-H522 lung
NCI/ADR-RES ovarian = tested on: NCI/ADR-RES ovarian
OVCAR-3 ovarian = tested on: OVCAR-3 ovarian
OVCAR-4 ovarian = tested on: OVCAR-4 ovarian
OVCAR-5 ovarian = tested on: OVCAR-5 ovarian
OVCAR-8 ovarian = tested on: OVCAR-8 ovarian
PC-3 prostate = tested on: PC-3 prostate
RPMI-8226 leukemia = tested on: RPMI-8226 leukemia
RXF 393 renal = tested on: RXF 393 renal
RXF-631 renal = tested on: RXF-631 renal
SF-268 CNS = tested on: SF-268 CNS
SF-295 CNS = tested on: SF-295 CNS
SF-539 CNS = tested on: SF-539 CNS
SK-MEL-2 melanoma = tested on: SK-MEL-2 melanoma
SK-MEL-28 melanoma = tested on: SK-MEL-28 melanoma
SK-MEL-5 melanoma = tested on: SK-MEL-5 melanoma
SK-OV-3 ovarian = tested on: SK-OV-3 ovarian
SN12C renal = tested on: SN12C renal
SNB-19 CNS = tested on: SNB-19 CNS
SNB-75 CNS = tested on: SNB-75 CNS
SR leukemia = tested on: SR leukemia
SW-620 colon = tested on: SW-620 colon
T-47D breast = tested on: T-47D breast
TK-10 renal = tested on: TK-10 renal
U251 CNS = tested on: U251 CNS
UACC-257 melanoma = tested on: UACC-257 melanoma
UACC-62 melanoma = tested on: UACC-62 melanoma
UO-31 renal = tested on: UO-31 renal
XF 498 CNS = tested on: XF 498 CNS
CCRF-CEM leukemia = tested on: CCRF-CEM leukemia
DMS 273 small cell lung = tested on: DMS 273 small cell lung
HOP-18 NSCLC = tested on: HOP-18 NSCLC
SNB-78 CNS = tested on: SNB-78 CNS

With `O=c1oc2ccccc2c(O)c1C(C/C(CCN1CCCC1)=N/O)c1ccccc1` (stereo not given) the TGI (786-0 renal) was greater than 100 µM, the TGI (A498 renal) was greater than 100 µM and the TGI (A549 NSCLC) was greater than 100 µM. The TGI (ACHN renal) was greater than 100 µM, the TGI (BT-549 breast) was greater than 100 µM and the TGI (CAKI-1 renal) was greater than 100 µM. It also gave a TGI (COLO 205 colon) greater than 100 µM, a TGI (DLD-1 colon) greater than 100 µM and a TGI (DMS 114 small cell lung) greater than 100 µM. For the same molecule, the TGI (DU-145 prostate) was greater than 100 µM, the TGI (EKVX NSCLC) was greater than 100 µM and the TGI (HCC-2998 colon) was greater than 100 µM. It also gave a TGI (HCT-116 colon) greater than 100 µM, a TGI (HCT-15 colon) greater than 100 µM and a TGI (HL-60(TB) leukemia) greater than 31.6 µM. It also gave a TGI (HOP-62 NSCLC) greater than 100 µM, a TGI (HOP-92 NSCLC) greater than 100 µM and a TGI (HS 578T breast) greater than 100 µM. For the same molecule, the TGI (HT29 colon) was greater than 100 µM, the TGI (IGROV1 ovarian) was greater than 100 µM and the TGI (K-562 leukemia) was greater than 31.6 µM. The TGI (KM12 colon) was greater than 100 µM, the TGI (KM20L2 colon) was greater than 100 µM and the TGI (LOX IMVI melanoma) was greater than 100 µM. For the same molecule, the TGI (LXFL 529 NSCLC) was greater than 100 µM, the TGI (M14 melanoma) was greater than 100 µM and the TGI (M19-MEL melanoma) was greater than 100 µM. It also gave a TGI (MALME-3M melanoma) greater than 100 µM, a TGI (MCF7 breast) greater than 100 µM and a TGI (MDA-MB-231 breast) greater than 100 µM. The TGI (MDA-MB-435) was greater than 100 µM, the TGI (MDA-N) was greater than 100 µM and the TGI (MOLT-4 leukemia) was greater than 100 µM. For the same molecule, the TGI (NCI-H226 lung) was greater than 100 µM, the TGI (NCI-H23 lung) was greater than 100 µM and the TGI (NCI-H460 lung) was greater than 100 µM. It also gave a TGI (NCI-H522 lung) greater than 100 µM, a TGI (NCI/ADR-RES ovarian) greater than 100 µM and a TGI (OVCAR-3 ovarian) greater than 100 µM. The TGI (OVCAR-4 ovarian) was greater than 100 µM, the TGI (OVCAR-5 ovarian) was greater than 100 µM and the TGI (OVCAR-8 ovarian) was greater than 100 µM. It also gave a TGI (PC-3 prostate) greater than 100 µM, a TGI (RPMI-8226 leukemia) greater than 100 µM and a TGI (RXF 393 renal) greater than 100 µM. The TGI (RXF-631 renal) was greater than 100 µM, the TGI (SF-268 CNS) was greater than 100 µM and the TGI (SF-295 CNS) was greater than 100 µM. For the same molecule, the TGI (SF-539 CNS) was greater than 100 µM, the TGI (SK-MEL-2 melanoma) was greater than 100 µM and the TGI (SK-MEL-28 melanoma) was greater than 100 µM. The TGI (SK-MEL-5 melanoma) was greater than 100 µM, the TGI (SK-OV-3 ovarian) was greater than 100 µM and the TGI (SN12C renal) was greater than 100 µM. It also gave a TGI (SNB-19 CNS) greater than 100 µM, a TGI (SNB-75 CNS) greater than 100 µM and a TGI (SR leukemia) greater than 100 µM. For the same molecule, the TGI (SW-620 colon) was greater than 100 µM, the TGI (T-47D breast) was greater than 100 µM and the TGI (TK-10 renal) was greater than 100 µM. The TGI (U251 CNS) was greater than 100 µM, the TGI (UACC-257 melanoma) was greater than 100 µM and the TGI (UACC-62 melanoma) was greater than 100 µM. The TGI (UO-31 renal) was greater than 100 µM and the TGI (XF 498 CNS) was greater than 100 µM.
`CCC1(CN(C)C)CC/C(=C\c2ccc(OC)cc2)C1=O` (stereo not given) was tested, and the TGI (786-0 renal) was greater than 100 µM, the TGI (A498 renal) was greater than 100 µM and the TGI (A549 NSCLC) was greater than 100 µM. For the same molecule, the TGI (ACHN renal) was greater than 100 µM, the TGI (CAKI-1 renal) was greater than 100 µM and the TGI (CCRF-CEM leukemia) was greater than 100 µM. For the same molecule, the TGI (COLO 205 colon) was greater than 100 µM, the TGI (DLD-1 colon) was greater than 100 µM and the TGI (DMS 114 small cell lung) was greater than 100 µM. The TGI (DMS 273 small cell lung) was greater than 100 µM, the TGI (EKVX NSCLC) was greater than 100 µM and the TGI (HCC-2998 colon) was greater than 100 µM. It also gave a TGI (HCT-116 colon) greater than 100 µM, a TGI (HCT-15 colon) greater than 100 µM and a TGI (HOP-18 NSCLC) greater than 100 µM. For the same molecule, the TGI (HOP-62 NSCLC) was greater than 100 µM, the TGI (HOP-92 NSCLC) was greater than 100 µM and the TGI (HT29 colon) was greater than 100 µM. For the same molecule, the TGI (IGROV1 ovarian) was greater than 100 µM, the TGI (K-562 leukemia) was greater than 100 µM and the TGI (KM12 colon) was greater than 100 µM. It also gave a TGI (KM20L2 colon) greater than 100 µM, a TGI (LOX IMVI melanoma) greater than 100 µM and a TGI (LXFL 529 NSCLC) greater than 100 µM. For the same molecule, the TGI (M14 melanoma) was greater than 100 µM, the TGI (M19-MEL melanoma) was greater than 100 µM and the TGI (MALME-3M melanoma) was greater than 100 µM. For the same molecule, the TGI (MOLT-4 leukemia) was greater than 100 µM, the TGI (NCI-H226 lung) was greater than 100 µM and the TGI (NCI-H23 lung) was greater than 100 µM. It also gave a TGI (NCI-H460 lung) greater than 100 µM, a TGI (NCI-H522 lung) greater than 100 µM and a TGI (OVCAR-3 ovarian) greater than 100 µM. It also gave a TGI (OVCAR-4 ovarian) greater than 100 µM, a TGI (OVCAR-5 ovarian) greater than 100 µM and a TGI (OVCAR-8 ovarian) greater than 100 µM. The TGI (RPMI-8226 leukemia) was greater than 100 µM, the TGI (RXF 393 renal) was greater than 100 µM and the TGI (RXF-631 renal) was greater than 100 µM. The TGI (SF-268 CNS) was greater than 100 µM, the TGI (SF-295 CNS) was greater than 100 µM and the TGI (SF-539 CNS) was greater than 100 µM. For the same molecule, the TGI (SK-MEL-2 melanoma) was greater than 100 µM, the TGI (SK-MEL-28 melanoma) was greater than 100 µM and the TGI (SK-MEL-5 melanoma) was greater than 100 µM. For the same molecule, the TGI (SN12C renal) was greater than 100 µM, the TGI (SNB-19 CNS) was greater than 100 µM and the TGI (SNB-75 CNS) was greater than 100 µM. It also gave a TGI (SNB-78 CNS) greater than 100 µM, a TGI (SW-620 colon) greater than 100 µM and a TGI (TK-10 renal) greater than 100 µM. For the same molecule, the TGI (U251 CNS) was greater than 100 µM, the TGI (UACC-257 melanoma) was greater than 100 µM and the TGI (UACC-62 melanoma) was greater than 100 µM. The TGI (UO-31 renal) was greater than 100 µM.
